Values of other authors in patent US7705151B2, “1,6 Naphthridines useful as inhibitors of SYK kinase” (Boehringer Ingelheim Pharmaceuticals, Inc., priority 2001, dated 2010).

Cc1ccc2c(=O)c3ccccc3n(CCCN)c2c1C.O=C(O)C(=O)O [ER-27319, 3,4-dimethyl-10-(3-aminopropyl)-9-acridone oxalate]
inhibition of anti-IgE mediated degranulation (human mast cells): inhibit anti-IgE mediated degranulation
inhibition of anti-IgE mediated degranulation (rodent mast cells): inhibit anti-IgE mediated degranulation
